In US11180474B2 (BRISTOL-MYERS SQUIBB COMPANY, priority 2016, dated 2021):
Where a name gives a salt, the structure may show the parent alone.

Key:
human TLR7 = target: T1, human TLR7 (Homo sapiens, UniProt Q9NYK1); test: TLR7 inhibition reporter assay (HEK-Blue cells, SEAP reporter, gardiquimod stimulation); assay type: cell-based; details: HEK-Blue cells overexpressing human TLR7, gardiquimod 7.5 μM
T1 construct: host or cells: HEK-Blue cells
T1 sequence (Q9NYK1 27-1049): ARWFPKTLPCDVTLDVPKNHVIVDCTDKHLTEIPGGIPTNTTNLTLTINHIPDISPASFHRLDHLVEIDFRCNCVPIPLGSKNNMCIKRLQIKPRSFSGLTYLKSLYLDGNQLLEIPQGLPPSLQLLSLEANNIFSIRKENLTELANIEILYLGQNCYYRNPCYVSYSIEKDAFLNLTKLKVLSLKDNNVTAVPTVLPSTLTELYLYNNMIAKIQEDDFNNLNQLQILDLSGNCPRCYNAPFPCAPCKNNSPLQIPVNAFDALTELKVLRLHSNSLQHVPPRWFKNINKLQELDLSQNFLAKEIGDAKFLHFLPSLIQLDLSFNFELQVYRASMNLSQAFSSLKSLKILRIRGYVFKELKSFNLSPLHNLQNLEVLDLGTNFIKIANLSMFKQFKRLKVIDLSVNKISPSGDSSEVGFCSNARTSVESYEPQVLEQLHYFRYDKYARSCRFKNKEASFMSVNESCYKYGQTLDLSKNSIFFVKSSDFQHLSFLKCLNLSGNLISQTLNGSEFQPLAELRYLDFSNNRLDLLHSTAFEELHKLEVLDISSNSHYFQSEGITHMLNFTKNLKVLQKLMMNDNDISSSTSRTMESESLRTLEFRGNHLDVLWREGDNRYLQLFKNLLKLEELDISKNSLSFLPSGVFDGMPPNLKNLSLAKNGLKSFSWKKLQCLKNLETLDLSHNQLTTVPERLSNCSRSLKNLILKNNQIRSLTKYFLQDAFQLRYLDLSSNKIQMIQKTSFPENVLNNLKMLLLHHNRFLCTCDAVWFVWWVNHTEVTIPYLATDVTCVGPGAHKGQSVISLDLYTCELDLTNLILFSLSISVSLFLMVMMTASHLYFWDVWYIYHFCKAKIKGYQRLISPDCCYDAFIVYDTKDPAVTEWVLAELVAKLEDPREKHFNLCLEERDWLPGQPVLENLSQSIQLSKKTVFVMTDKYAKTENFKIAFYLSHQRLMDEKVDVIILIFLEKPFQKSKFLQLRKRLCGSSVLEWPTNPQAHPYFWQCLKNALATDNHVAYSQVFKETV
Outline: (§1)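 HEK-Blue reporter cells (15,000/well TLR7, 20,000 TLR8) exposed to compound over 0.05 nM–50 μM, agonist-stimulated (R848 for TLR8, gardiquimod for TLR7), 22 h at 37 °C, 5% CO2. SEAP read with HEK-Blue Detection; % inhibition relative to agonist-plus-DMSO and known-inhibitor controls.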

human TLR8 = target: T2, human TLR8 (Homo sapiens, UniProt Q9NR97); test: TLR8 inhibition reporter assay (HEK-Blue cells, SEAP reporter, R848 stimulation); assay type: cell-based; details: HEK-Blue cells overexpressing human TLR8, R848 15.9 μM
T2 construct: host or cells: HEK-Blue cells
T2 sequence (Q9NR97 27-1041): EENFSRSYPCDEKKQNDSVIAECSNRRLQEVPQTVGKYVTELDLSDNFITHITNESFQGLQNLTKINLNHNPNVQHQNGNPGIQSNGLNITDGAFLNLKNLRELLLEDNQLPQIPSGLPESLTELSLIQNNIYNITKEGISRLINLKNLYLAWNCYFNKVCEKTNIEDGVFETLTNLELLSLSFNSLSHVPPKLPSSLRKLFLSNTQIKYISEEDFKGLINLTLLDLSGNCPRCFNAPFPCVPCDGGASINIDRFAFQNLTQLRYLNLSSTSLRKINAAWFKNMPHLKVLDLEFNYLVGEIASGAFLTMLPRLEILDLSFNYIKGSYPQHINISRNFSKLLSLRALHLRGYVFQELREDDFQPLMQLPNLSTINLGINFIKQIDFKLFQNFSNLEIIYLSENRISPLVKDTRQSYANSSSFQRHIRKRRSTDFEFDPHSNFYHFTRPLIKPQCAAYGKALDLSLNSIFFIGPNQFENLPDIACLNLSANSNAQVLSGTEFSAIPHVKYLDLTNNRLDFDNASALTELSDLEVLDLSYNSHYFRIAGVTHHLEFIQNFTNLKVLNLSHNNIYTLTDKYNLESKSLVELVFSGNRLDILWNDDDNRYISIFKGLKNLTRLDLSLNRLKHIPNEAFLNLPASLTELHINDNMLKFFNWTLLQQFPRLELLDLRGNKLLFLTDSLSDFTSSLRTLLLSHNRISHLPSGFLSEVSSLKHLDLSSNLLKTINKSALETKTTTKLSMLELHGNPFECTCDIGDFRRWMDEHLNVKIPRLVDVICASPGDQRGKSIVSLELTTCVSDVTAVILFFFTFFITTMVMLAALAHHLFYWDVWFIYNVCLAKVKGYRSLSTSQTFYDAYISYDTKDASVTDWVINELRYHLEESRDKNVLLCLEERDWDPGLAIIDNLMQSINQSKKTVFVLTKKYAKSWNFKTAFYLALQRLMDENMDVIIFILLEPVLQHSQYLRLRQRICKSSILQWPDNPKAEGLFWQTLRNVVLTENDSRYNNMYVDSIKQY
Outline: as §1

SMILES	IC50 (human TLR7) [nM]	IC50 (human TLR8) [nM]
CCc1c(-c2ccc(OC)c(OC)c2)[nH]c2ccc(C3CCN(C(=O)CNCC#N)CC3)cc12 [Example 161, 2-((2-(4-(2-(3,4-dimethoxyphenyl)-3-ethyl-1H-indol-5-yl)piperidin-1-yl)-2-oxoethyl)amino)acetonitrile]	1210	332
CCc1c(-c2ccc(OC)c(OC)c2)[nH]c2ccc(C3CCN(C(=O)CNC4CCC(N(C)C)CC4)CC3)cc12 (stereo not drawn) [Example 162, 1-(4-(2-(3,4-dimethoxyphenyl)-3-ethyl-1H-indol-5-yl)piperidin-1-yl)-2-((4-(dimethylamino)cyclohexyl)amino)ethan-1-one]	88	23
CCc1c(-c2ccc(OC)c(OC)c2)[nH]c2ccc(C3CCN(C(=O)CN4CCCC(C(=O)N(CC)CC)C4)CC3)cc12 (stereo not drawn) [Example 168, 1-(2-(4-(2-(3,4-dimethoxyphenyl)-3-ethyl-1H-indol-5-yl)piperidin-1-yl)-2-oxoethyl)-N,N-diethylpiperidine-3-carboxamide]	142	41
CCc1c(-c2ccc(OC)c(OC)c2)[nH]c2ccc(C3CCN(C(=O)CN4CC[C@@H](O)C4)CC3)cc12 [Example 173, (R)-1-(4-(2-(3,4-dimethoxyphenyl)-3-ethyl-1H-indol-5-yl)piperidin-1-yl)-2-(3-hydroxypyrrolidin-1-yl)ethan-1-one]	43	25
CCc1c(-c2ccc(OC)c(OC)c2)[nH]c2ccc(C3CCN(C(=O)C(C)(C)OC(C)=O)CC3)cc12 [Example 175, 1-(4-(2-(3,4-dimethoxyphenyl)-3-ethyl-1H-indol-5-yl)piperidin-1-yl)-2-methyl-1-oxopropan-2-yl acetate]	1690	2060
CCc1c(-c2ccc(OC)c(OC)c2)[nH]c2ccc(C3CCN(C(=O)CNc4nccs4)CC3)cc12 [Example 177, 1-(4-(2-(3,4-dimethoxyphenyl)-3-ethyl-1H-indol-5-yl)piperidin-1-yl)-2-(thiazol-2-ylamino)ethanone]	121	36
CCc1c(-c2ccc(OC)c(OC)c2)[nH]c2ccc(C3CCN(CC(C)C(F)(F)F)CC3)cc12 (stereo not drawn) [Example 180, 2-(3,4-dimethoxyphenyl)-3-ethyl-5-(1-(3,3,3-trifluoro-2-methylpropyl)piperidin-4-yl)-1H-indole]	≥ 50000	776
CCc1c(-c2ccc(OC)c(OC)c2)[nH]c2ccc(C3CCN(C(=O)CN(C)C)CC3)cc12 [Example 181, 1-(4-(2-(3,4-dimethoxyphenyl)-3-ethyl-1H-indol-5-yl)piperidin-1-yl)-2-(dimethylamino) ethanone]	52	66
CCc1c(-c2ccc(OC)c(OC)c2)[nH]c2ccc(C3CCN(C(=O)c4ccncc4)CC3)cc12 [Example 183, (4-(2-(3,4-dimethoxyphenyl)-3-ethyl-1H-indol-5-yl)piperidin-1-yl)(pyridin-4-yl) methanone]	533	838
CCc1c(-c2ccc(OC)c(OC)c2)[nH]c2ccc(C3CCN(C(=O)C4CCCNC4)CC3)cc12 (stereo not drawn) [Example 184, (4-(2-(3,4-dimethoxyphenyl)-3-ethyl-1H-indol-5-yl)piperidin-1-yl)(piperidin-3-yl)methanone]	191	136
CCc1c(-c2ccc(OC)c(OC)c2)[nH]c2ccc(C3CCN(C(C)=O)CC3)cc12 [Example 185, 1-(4-(2-(3,4-dimethoxyphenyl)-3-ethyl-1H-indol-5-yl)piperidin-1-yl)ethan-1-one]	273	837
CCc1c(-c2ccc(OC)c(OC)c2)[nH]c2ccc(C3CCN(C(=O)C4CCNCC4)CC3)cc12 [Example 186, (4-(2-(3,4-dimethoxyphenyl)-3-ethyl-1H-indol-5-yl)piperidin-1-yl)(piperidin-4-yl) methanone]	96	132
CCc1c(-c2ccc(OC)c(OC)c2)[nH]c2ccc(C3CCN(C(=O)C4(C)CCNCC4)CC3)cc12 [Example 187, (4-(2-(3,4-dimethoxyphenyl)-3-ethyl-1H-indol-5-yl)piperidin-1-yl)(4-methylpiperidin-4-yl)methanone]	167	162
CCc1c(-c2ccc(OC)c(OC)c2)[nH]c2cc(C)c(C3CCN(CCNC)CC3)cc12 [Example 188, 2-(4-(2-(3,4-dimethoxyphenyl)-3-ethyl-6-methyl-1H-indol-5-yl)piperidin-1-yl)-N-methylethanamine-di-trifluoroacetic acid]	70	213
CCc1c(-c2ccc(OC)c(OC)c2)[nH]c2c(F)cc(C3CCNCC3)cc12 [Example 189, 2-(3,4-dimethoxyphenyl)-3-ethyl-7-fluoro-5-(piperidin-4-yl)-1H-indole]	430	620
CCc1c(-c2ccc(OC)c(OC)c2)[nH]c2c(F)cc(C3CCN(C4CCN(CC(C)C)CC4)CC3)cc12 [Example 190, 2-(3,4-dimethoxyphenyl)-3-ethyl-7-fluoro-5-(1′-isobutyl-[1,4′-bipiperidin]-4-yl)-1H-indole]	588	1760
CCc1c(-c2ccc(OC)c(OC)c2)[nH]c2c(F)cc(C3CCN(CCNC)CC3)cc12 [Example 191, 2-(4-(2-(3,4-dimethoxyphenyl)-3-ethyl-7-fluoro-1H-indol-5-yl)piperidin-1-yl)-N-methylethan-1-amine]	1190	110
CCc1c(-c2ccc(OC)c(OC)c2)[nH]c2cc(OC)c(C3CCN(C4CCN(C(C)C)CC4)CC3)cc12 [Example 192, 2-(3,4-dimethoxyphenyl)-3-ethyl-5-(1′-isopropyl-[1,4′-bipiperidin]-4-yl)-6-methoxy-1H-indole]	171	194
COc1ccc(-c2[nH]c3ccc(C4CCNCC4)cc3c2C(C)C)cc1OC [Example 194, 2-(3,4-dimethoxyphenyl)-3-isopropyl-5-(piperidin-4-yl)-1H-indole hydrochloride]	73	54
COc1ccc(-c2[nH]c3ccc(C4CCN(C5CCNCC5)CC4)cc3c2C(C)C)cc1OC [Example 197, 5-([1,4′-bipiperidin]-4-yl)-2-(3,4-dimethoxyphenyl)-3-isopropyl-1H-indole dihydrochloride]	113	25
COc1ccc(-c2[nH]c3ccc(C4CCN(C5CCN(CC6CC6)CC5)CC4)cc3c2C(C)C)cc1OC [Example 198, 5-(1′-(cyclopropylmethyl)-[1,4′-bipiperidin]-4-yl)-2-(3,4-dimethoxyphenyl)-3-isopropyl-1H-indole di trifluoroacetic acid]	379	22
